Tests used:
Assay type in all cases: in vivo
[1] = Pharmacokinetic evaluation in mice; conditions: for AUC / Vd / clearance / half-life / Cmax / Tmax: male, mouse, plasma
Description: The mice pharmacokinetic characteristics of compounds were tested by standard protocols. The candidate compounds were made into clear solution for single intravenous injection (i.v.) and suspension for oral administration (p.o.). Intravenous vehicle is 5% DMSO+95% Saline while oral vehicle is 0.5% CMCNa. The experiment used 48 male mice and 24 mice for intravenous at a dose of 2 mg/kg. Plasma samples were collected at 0 h (before dosing) and 0.083 h, 0.25 h, 0.5 h, 1 h, 2 h, 4 h, 8 h, 24 h after dosing. Another 24 mice were orally administrated with a dose of 10 mg/kg. Plasma samples were collected at 0 h (before dosing) and 0.25 h, 0.5 h, 1 h, 2 h, 4 h, 6 h, 8 h, 24 h after dosing.
(§1) Blood samples were placed in tubes containing K2-EDTA and stored on ice until centrifuged. The blood samples were centrifuged at 6800 g for 6 minutes at 2-8° C. within 1 h after collected and stored frozen at approximately −80° C.
(§2) The analytical results were confirmed using quality control samples for intra-assay variation. The accuracy of >66.7% of the quality control samples and 50% of all QC samples at each concentration level were between 80-120% of the known value(s).
(§3) Standard set of parameters including Area Under the Curve (AUC(0-t) and AUC(0-∞)), elimination half-live (T1/2), maximum plasma concentration (Cmax), time to reach maximum plasma concentration (Tmax) were calculated using noncompartmental analysis modules in FDA certified pharmacokinetic program Phoenix WinNonlin 7.0 (Pharsight, USA) by the Study Director.

[2] = Pharmacokinetic evaluation in rats; conditions: for AUC / Vd / clearance / half-life / Cmax / Tmax: male, plasma; for AUC / Vd / clearance / half-life / Cmax / Tmax / F: rat
Description: The rat pharmacokinetic characteristics of compounds were tested by standard protocols. The candidate compounds were made into clear solution for single intravenous injection (i.v.) and suspension for oral administration (p.o.). Intravenous vehicle is 5% DMSO+95% Saline while oral vehicle is 0.5% CMCNa. The experiment used 9 male rats and 3 rats for intravenous at a dose of 2 mg/kg. Plasma samples were collected at 0 h (before dosing) and 0.083 h, 0.25 h, 0.5 h, 1 h, 2 h, 4 h, 8 h, 24 h after dosing. 3 rats were orally administrated at a dose of 10 mg/kg and 3 rats were orally administrated at a dose of 100 mg/kg. Plasma samples were collected at 0 h (before dosing) and 0.25 h, 0.5 h, 1 h, 2 h, 4 h, 6 h, 8 h, 24 h after dosing.
as §1, §2, §3

[3] = Pharmacokinetic evaluation in beagle dog; conditions: for AUC / Vd / clearance / half-life / Cmax / Tmax: plasma
Description: The beagle dog pharmacokinetic characteristics of compounds were tested by standard protocols. The candidate compounds were made into clear solution for single intravenous injection (i.v.) and suspension for oral administration (p.o.). Intravenous vehicle is 5% DMSO+95% Saline while oral vehicle is 0.5% CMCNa. The experiment used 9 dogs. The dogs for intravenous at a dose of 1 mg/kg. Plasma samples were collected at 0 h (before dosing) and 0.083 h, 0.25 h, 0.5 h, 1 h, 2 h, 4 h, 8 h, 24 h after dosing. Three dogs were orally administrated at a dose of 5 mg/kg. Another 3 dogs were orally administrated at a dose of 15 mg/kg or 30 mg/kg. Plasma samples were collected at 0 h (before dosing) and 0.25 h, 0.5 h, 1 h, 2 h, 4 h, 6 h, 8 h, 24 h after dosing.
as §1, §2, §3

| SMILES | plasma exposure and bioavailability in mice (in words) [1] | AUC ([1]; iv, i.v. 2 mg/kg) | Vd ([1]; iv, i.v. 2 mg/kg) | clearance ([1]; iv, i.v. 2 mg/kg) | half-life ([1]; iv, i.v. 2 mg/kg) | AUC ([1]; po, p.o. 10 mg/kg) | Cmax ([1]; po, p.o. 10 mg/kg) | Tmax ([1]; po, p.o. 10 mg/kg) | F ([1]; p.o. 10 mg/kg) | plasma exposure and bioavailability in rat (in words) [2] | AUC ([2]; iv, i.v. 2 mg/kg) | Vd ([2]; iv, i.v. 2 mg/kg) | clearance ([2]; iv, i.v. 2 mg/kg) | half-life ([2]; iv, i.v. 2 mg/kg) | AUC ([2]; po, p.o. 10 mg/kg) | Cmax ([2]; po, p.o. 10 mg/kg) | Tmax ([2]; po, p.o. 10 mg/kg) | Cmax ([2]; po, p.o. 100 mg/kg) | Tmax ([2]; po, p.o. 100 mg/kg) | F ([2]; p.o. 10 mg/kg) | other results |
| --- | --- | --- | --- | --- | --- | --- | --- | --- | --- | --- | --- | --- | --- | --- | --- | --- | --- | --- | --- | --- | --- |
| CP(C)(=O)c1cc2c(Nc3ccc4scnc4c3)ccnc2cc1OC(F)(F)F [A24] | excellent plasma exposure and bioavailability | 22600 ng·h/mL | 0.27 L/kg | 1.5 mL/min/kg | 2.2 h | 89100 ng·h/mL | 16200 ng/mL | 0.8 h | 79% | excellent plasma exposure and bioavailability | 26500 ng·h/mL | 0.19 L/kg | 1.2 mL/min/kg | 18 h | 248000 ng·h/mL | 20400 ng/mL | 1.8 h | 197000 ng/mL | 24 h | 187% | F ([2]; p.o. 100 mg/kg): 244%; plasma exposure and bioavailability in beagle dog (in words) [3]: excellent plasma exposure and bioavailability; F ([3]; p.o. 5 mg/kg): 212%; F ([3]; p.o. 15 mg/kg): 88%; AUC ([3]; iv, i.v. 1 mg/kg): 3800 ng·h/mL; Vd ([3]; iv, i.v. 1 mg/kg): 0.7 L/kg; clearance ([3]; iv, i.v. 1 mg/kg): 4.3 mL/min/kg; half-life ([3]; iv, i.v. 1 mg/kg): 1.9 h; AUC ([3]; po, p.o. 5 mg/kg): 40300 ng·h/mL; Cmax ([3]; po, p.o. 5 mg/kg): 9720 ng/mL; Tmax ([3]; po, p.o. 5 mg/kg): 1.1 h; AUC ([3]; po, p.o. 15 mg/kg): 50400 ng·h/mL; Cmax ([3]; po, p.o. 15 mg/kg): 13300 ng/mL; Tmax ([3]; po, p.o. 15 mg/kg): 3 h |
| COc1cc2nccc(Nc3ccc4scnc4c3)c2cc1P(C)(C)=O [A6] | excellent plasma exposure and bioavailability | 2990 ng·h/mL | 1.1 L/kg | 11.1 mL/min/kg | 1.2 h | 19200 ng·h/mL | 9610 ng/mL | 0.5 h | 129% | excellent plasma exposure and bioavailability | 7890 ng·h/mL | 0.6 L/kg | 4.2 mL/min/kg | 1.7 h | 18800 ng·h/mL | 3320 ng/mL | 3.3 h | 68400 ng/mL | 4.7 h | 48% | AUC ([2]; po, p.o. 100 mg/kg): 729000 ng·h/mL; F ([2]; p.o. 100 mg/kg): 185%; plasma exposure and bioavailability in beagle dog (in words) [3]: excellent plasma exposure and bioavailability; F ([3]; p.o. 5 mg/kg): 131%; F ([3]; p.o. 30 mg/kg): 184%; AUC ([3]; iv, i.v. 1 mg/kg): 1640 ng·h/mL; Vd ([3]; iv, i.v. 1 mg/kg): 1.7 L/kg; clearance ([3]; iv, i.v. 1 mg/kg): 9.5 mL/min/kg; half-life ([3]; iv, i.v. 1 mg/kg): 2.1 h; AUC ([3]; po, p.o. 5 mg/kg): 10800 ng·h/mL; Cmax ([3]; po, p.o. 5 mg/kg): 2190 ng/mL; Tmax ([3]; po, p.o. 5 mg/kg): 0.7 h; AUC ([3]; po, p.o. 30 mg/kg): 90800 ng·h/mL; Cmax ([3]; po, p.o. 30 mg/kg): 8630 ng/mL; Tmax ([3]; po, p.o. 30 mg/kg): 2.7 h |

From US20240190904A1, “Heteroaryl compounds as inhibitors of RIP2 kinase, composition and application thereof” (Accro Bioscience (HK) Limited, priority 2021, published 2024)
